# Measurements as given in US9802960B2 (MILLENNIUM PHARMACEUTICALS, INC., priority 2014, dated 2017).
# Target: Human VPS34 (Homo sapiens (Human), UniProt Q8NEB9)
# Test: Human VPS34 enzyme assay (Adapta TR-FRET)
# Format: biochemical
# Conditions: IC50 range class
# Chain of Human VPS34 (Q8NEB9 whole entry): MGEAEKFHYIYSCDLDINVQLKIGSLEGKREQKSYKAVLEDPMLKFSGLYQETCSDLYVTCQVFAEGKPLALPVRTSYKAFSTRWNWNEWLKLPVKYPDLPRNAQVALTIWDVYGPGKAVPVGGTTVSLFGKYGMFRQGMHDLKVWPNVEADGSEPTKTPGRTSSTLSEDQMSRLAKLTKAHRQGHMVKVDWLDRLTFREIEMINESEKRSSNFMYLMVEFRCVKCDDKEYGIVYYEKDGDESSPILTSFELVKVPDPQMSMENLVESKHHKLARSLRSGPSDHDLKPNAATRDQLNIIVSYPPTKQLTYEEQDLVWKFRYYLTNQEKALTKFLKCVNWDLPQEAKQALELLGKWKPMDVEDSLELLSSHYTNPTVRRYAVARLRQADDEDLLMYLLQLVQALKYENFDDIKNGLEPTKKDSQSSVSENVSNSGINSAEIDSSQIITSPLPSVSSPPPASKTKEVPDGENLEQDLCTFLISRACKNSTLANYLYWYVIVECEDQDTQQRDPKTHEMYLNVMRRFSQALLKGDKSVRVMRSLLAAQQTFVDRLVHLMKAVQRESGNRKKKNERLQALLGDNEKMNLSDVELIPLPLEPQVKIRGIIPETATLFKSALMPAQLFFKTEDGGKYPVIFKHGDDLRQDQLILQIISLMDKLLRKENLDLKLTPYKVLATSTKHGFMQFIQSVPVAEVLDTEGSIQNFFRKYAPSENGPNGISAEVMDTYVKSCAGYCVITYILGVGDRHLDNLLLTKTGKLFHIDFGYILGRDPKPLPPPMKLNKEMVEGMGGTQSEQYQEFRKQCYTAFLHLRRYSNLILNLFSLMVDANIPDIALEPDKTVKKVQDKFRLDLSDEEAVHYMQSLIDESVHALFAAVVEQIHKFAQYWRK
row,IC50,Compound
1,< 10 nM,"CC(=O)Nc1cc(-c2cnc(N)c(NS(=O)(=O)c3ccc(F)cc3F)c2)ccn1 [Compound I-64, N-(6-amino-5-{[(2,4-difluorophenyl)sulfonyl]amino}-3,4′-bipyridin-2′-yl)acetamide]"

# Same assay, conditions: compound concentration 1.11 μM; read-out: Percent Inhibition
row,inhibition at 1.11 µM,Compound
1,> 99%,"COC(=O)Nc1cc(-c2cnc3ccn(CC4CC4)c3c2)ccn1 [Compound I-42, Methyl {4-[1-(cyclopropylmethyl)-1H-pyrrolo[3,2-b]pyridin-6-yl]pyridin-2-yl}carbamate]"
2,> 99%,"CC(=O)Nc1cc(-c2cnc(N)c(S(=O)(=O)Nc3ccccc3)c2)ccn1 [Compound I-43, N-[6-amino-5-(phenylsulfamoyl)-3,4′-bipyridin-2′-yl]acetamide]"
3,> 99%,"CCc1ccc(S(=O)(=O)Nc2cc(-c3ccnc(NC(C)=O)c3)cnc2C)cc1 [Compound I-44, N-(5-{[(4-ethylphenyl)sulfonyl]amino}-6-methyl-3,4′-bipyridin-2′-yl)acetamide]"
4,> 99%,"CC(=O)Nc1cc(-c2cnc(C)c(NS(=O)(=O)c3cccnc3)c2)ccn1 [Compound I-45, N-{6-methyl-5-[(pyridin-3-ylsulfonyl)amino]-3,4′-bipyridin-2′-yl}acetamide]"
5,> 99%,"CC(=O)Nc1cc(-c2cnc(C)c(N(C)S(=O)(=O)c3ccccc3)c2)ccn1 [Compound I-46, N-{6-methyl-5-[methyl(phenylsulfonyl)amino]-3,4′-bipyridin-2′-yl}acetamide]"
6,> 99%,"CC(=O)Nc1cc(-c2cncc(S(=O)(=O)N3CCCC3)c2)ccn1 [Compound I-47, N-[5-(pyrrolidin-1-ylsulfonyl)-3,4′-bipyridin-2′-yl]acetamide]"
7,> 99%,"CC(=O)Nc1cc(-c2cncc(C(=O)N(C)C)c2)ccn1 [Compound I-48, 2′-acetamido-N,N-dimethyl-3,4′-bipyridine-5-carboxamide]"
8,> 99%,"CC(=O)Nc1cc(-c2cnc(N)c(S(=O)(=O)NCC3CC3)c2C)ccn1 [Compound I-49, N-{6-amino-5-[(cyclopropylmethyl)sulfamoyl]-4-methyl-3,4′-bipyridin-2′-yl}acetamide]"
9,> 99%,"CC(=O)Nc1cc(-c2cnc(N)c(S(=O)(=O)Cc3ccccc3C(F)(F)F)c2)ccn1 [Compound I-50, N-(6-amino-5-{[2-(trifluoromethyl)benzyl]sulfonyl}-3,4′-bipyridin-2′-yl)acetamide]"
10,91%,"CC(=O)Nc1cc(-c2cncc(S(C)(=O)=O)c2)ccn1 [Compound I-51, N-[5-(methylsulfonyl)-3,4′-bipyridin-2′-yl]acetamide]"
11,> 99%,CC(=O)Nc1cc(-c2cnc(C)c(NS(=O)(=O)c3cc(F)ccc3F)c2)ccn1 [Compound I-52]
12,67%,"CC(=O)Nc1cc(-c2cnc(NCC3CC3)c(N)c2)ccn1 [Compound I-53, N-{5-amino-6-[(cyclopropylmethyl)amino]-3,4′-bipyridin-2′-yl}acetamide]"
13,83%,"CC(=O)Nc1cc(-c2cnc3[nH]cc(CN4CCCC4)c3c2)ccn1 [Compound I-54, N-{4-[3-(pyrrolidin-1-ylmethyl)-1H-pyrrolo[2,3-b]pyridin-5-yl]pyridin-2-yl}acetamide]"
14,> 99%,"COC(=O)Nc1cc(-c2cnc(N)c(C(=O)N(C)C)c2)ccn1 [Compound I-55, methyl [6-amino-5-(dimethylcarbamoyl)-3,4′-bipyridin-2′-yl]carbamate]"
15,> 99%,"CC(=O)Nc1cc(-c2cnc(Cl)c(NS(=O)(=O)c3ccccc3)c2)c(C)cn1 [Compound I-56, N-{6-chloro-5′-methyl-5-[(phenylsulfonyl)amino]-3,4′-bipyridin-2′-yl}acetamide]"
16,> 99%,"CNC(=O)c1cc(-c2ccnc(NC(C)=O)c2)cnc1N [Compound I-57, 2′-acetamido-6-amino-N-methyl-3,4′-bipyridine-5-carboxamide]"

row,inhibition at 1.11 µM,Compound
1,> 99%,"COc1cc(F)ccc1S(=O)(=O)Nc1cc(-c2ccnc(NC(C)=O)c2)cnc1C [Compound I-58, N-(5-{[(4-fluoro-2-methoxyphenyl)sulfonyl]amino}-6-methyl-3,4′-bipyridin-2′-yl)acetamide]"
2,> 99%,"CC(=O)Nc1cc(-c2cnc(C)c(NS(=O)(=O)c3ccc(F)c(F)c3)c2)ccn1 [Compound I-59, N-(5-{[(3,4-difluorophenyl)sulfonyl]amino}-6-methyl-3,4′-bipyridin-2′-yl)acetamide]"
3,> 99%,"CC(=O)Nc1cc(-c2cnc(N)c(C(=O)N3CCC(F)(F)C3)c2)ccn1 [Compound I-60, N-{6-amino-5-[(3,3-difluoropyrrolidin-1-yl)carbonyl]-3,4′-bipyridin-2′-yl}acetamide]"
4,95%,"CC(=O)Nc1cc(-c2cnc(N)c(S(N)(=O)=O)c2)ccn1 [Compound I-61, N-(6-amino-5-sulfamoyl-3,4′-bipyridin-2′-yl)acetamide]"
5,> 99%,"CC(=O)Nc1cc(-c2cnc(C)c(NS(=O)(=O)c3ccccc3C(F)(F)F)c2)ccn1 [Compound I-62, N-[6-methyl-5-({[2-(trifluoromethyl)phenyl]sulfonyl}amino)-3,4′-bipyridin-2′-yl]acetamide]"
6,> 99%,"CNc1ncc(-c2ccnc(NC(C)=O)c2)cc1S(=O)(=O)Nc1ccc(F)cc1F [Compound I-63, N-{5-[(2,4-difluorophenyl)sulfamoyl]-6-(methylamino)-3,4′-bipyridin-2′-yl}acetamide]"
7,> 99%,"CC(=O)Nc1cc(-c2cnc(N)c(NS(=O)(=O)c3ccc(F)cc3F)c2)ccn1 [Compound I-64, N-(6-amino-5-{[(2,4-difluorophenyl)sulfonyl]amino}-3,4′-bipyridin-2′-yl)acetamide]"
8,93%,"CC(=O)Nc1cc(-c2cnc(NCC3CC3)c(NCC3CC3)c2)ccn1 [Compound I-65, N-{5,6-bis[(cyclopropylmethyl)amino]-3,4′-bipyridin-2′-yl}acetamide]"
9,88%,"CC(=O)Nc1cc(-c2cnc3[nH]c(C)nc3c2)ccn1 [Compound I-66, N-[4-(2-methyl-3H-imidazo[4,5-b]pyridin-6-yl)pyridin-2-yl]acetamide]"
10,> 99%,"CC(=O)Nc1cc(-c2cnc3c(c2)CCN3)ccn1 [Compound I-67, N-[4-(2,3-dihydro-1H-pyrrolo[2,3-b]pyridin-5-yl)pyridin-2-yl]acetamide]"
11,98%,"CC(=O)Nc1cc(-c2cnc3c(c2)NS(=O)(=O)N3CC2CC2)ccn1 [Compound I-68, N-{4-[3-(cyclopropylmethyl)-2,2-dioxido-1,3-dihydro[1,2,5]thiadiazole[3,4-b]pyridin-6-yl]pyridin-2-yl}acetamide]"
12,> 99%,"CCS(=O)(=O)c1cc(-c2ccnc(NC(C)=O)c2)cnc1N [Compound I-69, N-[6-amino-5-(ethylsulfonyl)-3,4′-bipyridin-2′-yl]acetamide]"
13,> 99%,"CC(=O)Nc1cc(-c2cnc(C)c(NS(=O)(=O)c3cccc(C(C)(C)C)c3)c2)ccn1 [Compound I-70, N-(5-{[(3-tert-butylphenyl)sulfonyl]amino}-6-methyl-3,4′-bipyridin-2′-yl)acetamide]"
14,> 99%,"CC(=O)Nc1cc(-c2cnc(N)c(C(=O)N3CCc4ccccc43)c2)ccn1 [Compound I-71, N-[6-amino-5-(2,3-dihydro-1H-indol-1-ylcarbonyl)-3,4′-bipyridin-2′-yl]acetamide]"
15,> 99%,"CC(=O)Nc1cc(-c2cnc(C)c(NS(=O)(=O)C3CCCCC3)c2)ccn1 [Compound I-72, N-{5-[(cyclohexylsulfonyl)amino]-6-methyl-3,4′-bipyridin-2′-yl}acetamide]"
